The source of these data is US5346910A (priority 1992, dated 1994).

Assay [1] concerns the target high affinity agonist conformation of the muscarinic cholinergic receptor (rat brain cerebral cortex homogenate). The assay is described as follows: [3H]-Cis-methyldioxolane (3H-CD) binding assay (high affinity). The conditions noted are these: 1.0 nM 3H-CD, 25° C., 120 minutes.
For assay [2], the target named is muscarinic cholinergic receptor (rat brain cerebral cortex homogenate). In kind it is binding. The following applies: 0.25 nM 3H-QNB, 25° C., 120 minutes.
The next assay concerns SDAT patients. The following applies: compared to physostigmine; cited from earlier work.
The test system of the next assay is aged monkey. The conditions noted are these: aged monkeys; cited from earlier work.

Each structure is given as a SMILES string.

As for `CN(C)CC#CCN1C(=O)C=CC1=O` [1-[4-(Dimethylamino)-2-butynyl]-1H-pyrrole-2,5-dione], the Ki in assay [1] is 1480 nM; in assay [2] it was 1740 nM.
On to `CSC1CC(=O)N(CC#CCN(C)C)C1=O` (centres unmarked) [1-[4-(Dimethylamino)-2-butynyl]-3-(methylthio)-2,5-pyrrolidinedione], for which the Ki is 1600 nM in assay [1] and more than 100000 nM in assay [2].
Regarding `CC1=CC(=O)N(CC#CCN(C)C)C1=O` [1-[4-(Dimethylamino)-2-butynyl]-3-methyl-1H-pyrrole-2,5-dione], the inhibitory constant (Ki) in assay [1] stood at 3400 nM; in assay [2] it was 1400 nM.
As to `CSC1CC(=O)N(CC#CCN2CCCC2)C1=O` (centres unmarked) [3-(Methylthio)-1-[4-(1-pyrrolidinyl)-2-butynyl]-2,5-pyrrolidinedione], the inhibition constant Ki is 1780 nM in assay [1] and 2200 nM in assay [2].
On the same counts, the results for `CC1=CC(=O)N(CC#CCN2CCCC2)C1=O` [3-Methyl-1-[4-(1-pyrrolidinyl)-2-butynyl]-1H-pyrrole-2,5-dione] are 530 nM and 200 nM.
As to `C[N+](C)(C)CC#CCN1C(=O)C=CC1=O` [4-(2,5-Dihydro-2,5-dioxo-1H-pyrrol-1-yl)-N,N,N-trimethyl-2-butyne-1-aminium iodide], the inhibitory constant (Ki) in assay [1] worked out at 290 nM; in assay [2], 11000 nM.
As to `CC1=CC(=O)N(CC#CC[N+](C)(C)C)C1=O` [4-(2,5-Dihydro-3-methyl-2,5-dioxo-1H-pyrrol-1-yl)-N,N,N-trimethyl-2-butyne-1-aminium iodide], the Ki in assay [1] was 560 nM; in assay [2], 2300 nM.
For `COC(=O)C1=CCCN(C)C1` [arecoline], the “improvement in SDAT patients” value in the assay with SDAT patients is “more consistent improvement”. Besides, the “performance in aged monkey model of SDAT” value with aged monkey is reported as “significant improvement in performance”.
As to `O=C1CCCN1CC#CCN1CCCC1` [oxotremorine], the “performance in aged monkey model of SDAT” value in the assay with aged monkey was “significant improvement in performance”.

What is called Ki is the equilibrium dissociation constant of an inhibitor or competing ligand from its target.
